Results reported in ChEMBL document CHEMBL1201862, “PubChem BioAssay data set” (2004).
Activity calls are given as the source filed them.

Assays:
[1] = biological target: T1, Mannose-6-phosphate isomerase (Homo sapiens, UniProt P34949); experiment: inhibitors of human PMI, primary screen, biochemical, fluorescence intensity, coupled assay (AID 1209)
T1 sequence (P34949 whole entry): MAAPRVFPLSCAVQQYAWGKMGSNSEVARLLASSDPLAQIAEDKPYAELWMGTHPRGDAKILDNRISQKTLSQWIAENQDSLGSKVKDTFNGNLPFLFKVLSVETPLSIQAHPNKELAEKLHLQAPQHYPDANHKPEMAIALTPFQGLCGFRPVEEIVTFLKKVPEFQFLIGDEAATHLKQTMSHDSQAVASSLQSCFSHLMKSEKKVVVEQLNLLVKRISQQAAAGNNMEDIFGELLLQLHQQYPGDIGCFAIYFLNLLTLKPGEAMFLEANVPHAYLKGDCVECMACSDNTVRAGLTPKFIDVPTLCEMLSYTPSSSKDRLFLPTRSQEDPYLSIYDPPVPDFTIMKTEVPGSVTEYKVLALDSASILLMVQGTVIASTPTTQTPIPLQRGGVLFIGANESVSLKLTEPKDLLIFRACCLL

[2] = biological target: DNA dC->dU-editing enzyme APOBEC-3G (Homo sapiens, UniProt Q9HC16); experiment: Dose Response confirmation of small molecule APOBEC3G DNA Deaminase Inhibitors via a fluorescence-based single-stranded DNA deaminase assay. [Related pubchem assays (depositor defined):AID493012, AID493028]; format: functional
DNA dC->dU-editing enzyme APOBEC-3G, sequence (Q9HC16 whole entry): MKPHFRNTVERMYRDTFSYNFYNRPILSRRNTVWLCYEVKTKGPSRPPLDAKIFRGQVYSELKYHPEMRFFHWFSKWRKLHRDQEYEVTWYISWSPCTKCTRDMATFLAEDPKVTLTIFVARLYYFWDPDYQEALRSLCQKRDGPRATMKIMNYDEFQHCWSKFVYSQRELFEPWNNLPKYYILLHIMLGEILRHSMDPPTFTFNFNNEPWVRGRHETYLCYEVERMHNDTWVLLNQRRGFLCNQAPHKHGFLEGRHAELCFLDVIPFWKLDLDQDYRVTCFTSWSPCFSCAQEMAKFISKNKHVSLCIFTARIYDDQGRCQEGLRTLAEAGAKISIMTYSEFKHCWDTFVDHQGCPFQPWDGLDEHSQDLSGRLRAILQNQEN

[3] = biological target: T2, Epstein-Barr nuclear antigen 1 (Epstein-Barr virus (strain B95-8) (HHV-4) (Human herpesvirus 4), UniProt P03211); experiment: EBNA-1 inhibitors, dose response, biochemical, fluorescence polarization, 1536-well (AID 2381); set-up: species or system human gammaherpesvirus 4;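 further: fluorescence polarization of a Cy5 DNA probe bound by EBNA-1 protein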
T2 sequence (P03211 whole entry): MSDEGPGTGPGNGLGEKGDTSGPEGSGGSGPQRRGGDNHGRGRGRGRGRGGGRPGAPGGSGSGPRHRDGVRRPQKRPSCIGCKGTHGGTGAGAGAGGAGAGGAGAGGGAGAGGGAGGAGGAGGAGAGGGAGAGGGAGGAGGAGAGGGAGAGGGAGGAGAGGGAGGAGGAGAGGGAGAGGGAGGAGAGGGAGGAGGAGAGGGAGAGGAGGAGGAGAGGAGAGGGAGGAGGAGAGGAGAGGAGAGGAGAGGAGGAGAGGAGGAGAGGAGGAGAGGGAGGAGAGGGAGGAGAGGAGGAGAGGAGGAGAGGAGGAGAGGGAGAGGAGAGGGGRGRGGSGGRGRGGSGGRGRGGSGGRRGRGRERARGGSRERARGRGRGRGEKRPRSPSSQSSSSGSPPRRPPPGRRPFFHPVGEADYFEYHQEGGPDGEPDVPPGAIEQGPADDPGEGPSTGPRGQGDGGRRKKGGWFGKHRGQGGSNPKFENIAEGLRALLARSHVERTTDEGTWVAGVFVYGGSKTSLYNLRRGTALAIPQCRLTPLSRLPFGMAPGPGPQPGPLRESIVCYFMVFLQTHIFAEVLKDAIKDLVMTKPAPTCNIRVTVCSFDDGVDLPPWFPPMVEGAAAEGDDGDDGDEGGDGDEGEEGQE

[4] = biological target: T3, Lytic switch protein BZLF1 (Epstein-Barr virus (strain B95-8) (HHV-4) (Human herpesvirus 4), UniProt P03206); experiment: EBV ZTA inhibitors, dose response, counter-screen for EBNA-1 inhibitor project, biochemical, fluorescence polarization, Epstein-Barr virus, 1536-well (AID 2377); set-up: species or system human gammaherpesvirus 4;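 further: fluorescence polarization of Cy5-labelled ZRE DNA probe bound by purified Zta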
T3 sequence (P03206 whole entry): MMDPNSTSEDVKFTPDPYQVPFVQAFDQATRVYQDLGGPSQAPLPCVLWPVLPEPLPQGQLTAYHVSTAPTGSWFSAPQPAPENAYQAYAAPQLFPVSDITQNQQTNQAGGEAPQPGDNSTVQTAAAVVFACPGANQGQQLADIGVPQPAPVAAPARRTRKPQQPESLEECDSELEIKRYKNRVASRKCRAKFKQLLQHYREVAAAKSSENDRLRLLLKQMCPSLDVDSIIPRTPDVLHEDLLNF

[5] = biological target: FAD-linked sulfhydryl oxidase ALR (Homo sapiens, UniProt P55789); experiment: inhibitors of human ALR sulfhydryl oxidase, dose response, biochemical, H2O2 detection, luminescence, cherry-pick (AID 493248)
FAD-linked sulfhydryl oxidase ALR, sequence (P55789 whole entry): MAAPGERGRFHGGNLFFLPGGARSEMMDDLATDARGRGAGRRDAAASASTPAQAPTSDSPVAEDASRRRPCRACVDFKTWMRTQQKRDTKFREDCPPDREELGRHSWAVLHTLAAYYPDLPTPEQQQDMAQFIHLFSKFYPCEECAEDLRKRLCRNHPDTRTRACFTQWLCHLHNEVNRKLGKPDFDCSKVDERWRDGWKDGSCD

[6] = biological target: T4, Leucine aminopeptidase (Plasmodium falciparum 3D7, UniProt Q8IL11); experiment: P. falciparum M17LAP inhibitors, primary screen, biochemical, fluorogenic H-Leu-NHMec substrate, 1536-well (AID 1619); format: functional
T4 sequence (Q8IL11 whole entry): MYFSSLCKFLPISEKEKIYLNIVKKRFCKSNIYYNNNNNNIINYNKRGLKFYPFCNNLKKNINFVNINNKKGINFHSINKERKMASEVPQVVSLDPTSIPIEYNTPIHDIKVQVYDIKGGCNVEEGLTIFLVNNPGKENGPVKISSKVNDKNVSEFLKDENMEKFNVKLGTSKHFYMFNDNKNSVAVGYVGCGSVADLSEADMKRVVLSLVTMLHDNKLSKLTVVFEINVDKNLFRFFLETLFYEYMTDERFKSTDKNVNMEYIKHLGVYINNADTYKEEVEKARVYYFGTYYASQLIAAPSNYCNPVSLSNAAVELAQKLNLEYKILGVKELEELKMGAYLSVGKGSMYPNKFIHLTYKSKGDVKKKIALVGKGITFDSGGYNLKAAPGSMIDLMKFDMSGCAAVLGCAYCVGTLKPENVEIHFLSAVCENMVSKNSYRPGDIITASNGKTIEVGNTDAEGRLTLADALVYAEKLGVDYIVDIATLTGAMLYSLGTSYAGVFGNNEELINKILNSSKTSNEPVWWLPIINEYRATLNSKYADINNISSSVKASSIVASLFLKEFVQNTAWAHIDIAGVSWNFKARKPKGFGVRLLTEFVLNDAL

[7] = P. falciparum Dd2 growth inhibitors, dose response, SYBR Green, cherry-picked samples (AID 1159567); format: functional, cell-based
[8] = HepG2 cell cytotoxicity, dose response, cytotoxicity control, cherry-picked samples (AID 1159577); format: functional, cell-based
[9] = Jurkat T cell cytotoxicity, dose response, cytotoxicity control for P. falciparum gametocyte viability project, luminescence (AID 1117277); format: functional, cell-based;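 further: potency reflects loss of cellular ATP meaning fewer viable cells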
[10] = P. falciparum late gametocyte killing, dose response, luminescence (AID 1117278); format: functional, cell-based;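 further: gametocytes exposed to compound for 24 hours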
[11] = HepG2 cell cytotoxicity, dose response, cytotoxicity control, plate reader, dry powder samples (AID 1159569); format: functional, cell-based;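 further: inhibitor potency with signal falling toward the positive control level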
[12] = P. falciparum 3D7-ScDHODH growth inhibitors, dose response, SYBR Green, dry powder samples (AID 1159570); format: functional, cell-based;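 further: parasite growth measured after 72 hours of compound exposure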
[13] = P. falciparum Dd2 growth inhibitors, dose response, SYBR Green, dry powder samples (AID 1159566); format: functional, cell-based;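 further: potency for growth inhibition with lower SYBR green DNA signal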
[14] = P. falciparum ATP4 D1247Y mutant growth inhibitors, dose response, NITD609-resistant line, SYBR Green, dry powder (AID 1159571); format: functional, cell-based;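 further: parasites synchronized at ring stage by sorbitol before testing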
[15] = biological target: T5, RNA-binding protein pos-1 (Caenorhabditis elegans, UniProt G5EF15); experiment: inhibitors of POS-1/mex-3 RNA binding, dose response, biochemical, fluorescence polarization (AID 1964);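 further: purified POS-1 fused to maltose binding protein made in E. coli; potency of compounds blocking POS-1 binding to fluorescent RNA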
T5 sequence (G5EF15 whole entry): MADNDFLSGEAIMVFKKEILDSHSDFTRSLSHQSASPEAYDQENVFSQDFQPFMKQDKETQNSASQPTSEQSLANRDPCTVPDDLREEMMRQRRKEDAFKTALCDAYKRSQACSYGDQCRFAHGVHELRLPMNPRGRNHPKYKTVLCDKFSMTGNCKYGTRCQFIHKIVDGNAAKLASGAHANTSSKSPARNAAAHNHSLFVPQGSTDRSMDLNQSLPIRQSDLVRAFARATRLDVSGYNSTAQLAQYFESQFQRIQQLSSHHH

[16] = biological target: T6, Zinc finger protein mex-5 (Caenorhabditis elegans, UniProt Q9XUB2); experiment: MEX-5/TCR-2 RNA interaction inhibitors, dose response, biochemical, C. elegans, fluorescence polarization (AID 1960)
T6 sequence (Q9XUB2 whole entry): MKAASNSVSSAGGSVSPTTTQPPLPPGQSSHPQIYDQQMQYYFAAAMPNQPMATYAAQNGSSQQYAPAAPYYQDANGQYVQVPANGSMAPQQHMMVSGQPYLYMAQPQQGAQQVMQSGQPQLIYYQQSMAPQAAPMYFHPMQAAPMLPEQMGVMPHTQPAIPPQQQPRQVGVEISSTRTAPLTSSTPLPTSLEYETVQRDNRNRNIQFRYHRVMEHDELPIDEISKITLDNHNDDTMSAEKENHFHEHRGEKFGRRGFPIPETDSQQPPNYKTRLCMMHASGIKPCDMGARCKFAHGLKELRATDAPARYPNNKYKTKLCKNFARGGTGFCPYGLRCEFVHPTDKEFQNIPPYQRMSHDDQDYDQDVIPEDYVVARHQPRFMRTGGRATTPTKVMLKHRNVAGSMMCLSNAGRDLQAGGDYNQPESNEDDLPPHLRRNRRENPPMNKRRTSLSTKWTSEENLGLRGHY

COc1ccc(Cc2nnc(S)n2N)cc1OC
IC50 [1]: 31.9 µM (active) | IC50 [2]: 17.8 µM (active)

NC(=O)c1cc(-c2ccccc2)sc1NC(=O)Cc1ccc(S(=O)(=O)N2CCOCC2)s1
IC50 [3]: > 5.47 µM (active) | IC50 [4]: > 111 µM (not active)

Cc1cccc(Nc2ncnc3[nH]cnc23)c1
AC50 [5]: 75.3 µM (active) | IC50 [6]: 71.4 µM (active)

OC[C@@H]1[C@H](c2ccc(C3=CCCC3)cc2)[C@H]2CN(CCC(F)(F)F)CCCCN12
AC50 [7]: 1.2 µM (active) | AC50 [8]: 18.7 µM (active)

CC(C)CN1CCN(Cc2nc(C(C)C)cs2)CC1CCO (stereo unspecified)
IC50 [9]: > 83.3 µM (inactive) | IC50 [10]: > 109 µM (inactive)

Nc1cc(N)nc(SCC(=O)Nc2ccc3c(c2)OCCCO3)n1
IC50 [6]: 14.4 µM (active)

COc1ccc(C#Cc2ccc3c(c2)[C@H]2[C@H](CCN2Cc2ccncc2)[C@@H](CO)N3)cc1
AC50 [11]: 62.5 µM (active) | AC50 [12]: 1.95 µM (active) | AC50 [7]: 2.38 µM (active) | AC50 [13]: 1.16 µM (active) | AC50 [14]: 1.67 µM (active)

CN(C)c1ccc(/C=C(\C#N)C(=O)NCc2ccco2)cc1
EC50 [15]: > 300 µM (not active) | EC50 [16]: 23.7 µM (active) | IC50 [3]: 15 µM (not active) | IC50 [4]: 32 µM (not active)

Cc1nc(NS(=O)(=O)c2ccccc2)sc1C(=O)NN
IC50 [6]: 114 µM (active)
